biological target: T1, AHR (Homo sapiens, UniProt P35869); assay: DRE-Luciferase Reporter Assay, HepG2 (agonist); assay type: cell-based; conditions: DRE-Luc HepG2 - Agonist: Average EC50 (μM), HepG2, Table 2
T1 construct: endogenous in cells; host or cells: HepG2 (human), transfected with a DRE-luciferase reporter only
T1 sequence (P35869 11-848): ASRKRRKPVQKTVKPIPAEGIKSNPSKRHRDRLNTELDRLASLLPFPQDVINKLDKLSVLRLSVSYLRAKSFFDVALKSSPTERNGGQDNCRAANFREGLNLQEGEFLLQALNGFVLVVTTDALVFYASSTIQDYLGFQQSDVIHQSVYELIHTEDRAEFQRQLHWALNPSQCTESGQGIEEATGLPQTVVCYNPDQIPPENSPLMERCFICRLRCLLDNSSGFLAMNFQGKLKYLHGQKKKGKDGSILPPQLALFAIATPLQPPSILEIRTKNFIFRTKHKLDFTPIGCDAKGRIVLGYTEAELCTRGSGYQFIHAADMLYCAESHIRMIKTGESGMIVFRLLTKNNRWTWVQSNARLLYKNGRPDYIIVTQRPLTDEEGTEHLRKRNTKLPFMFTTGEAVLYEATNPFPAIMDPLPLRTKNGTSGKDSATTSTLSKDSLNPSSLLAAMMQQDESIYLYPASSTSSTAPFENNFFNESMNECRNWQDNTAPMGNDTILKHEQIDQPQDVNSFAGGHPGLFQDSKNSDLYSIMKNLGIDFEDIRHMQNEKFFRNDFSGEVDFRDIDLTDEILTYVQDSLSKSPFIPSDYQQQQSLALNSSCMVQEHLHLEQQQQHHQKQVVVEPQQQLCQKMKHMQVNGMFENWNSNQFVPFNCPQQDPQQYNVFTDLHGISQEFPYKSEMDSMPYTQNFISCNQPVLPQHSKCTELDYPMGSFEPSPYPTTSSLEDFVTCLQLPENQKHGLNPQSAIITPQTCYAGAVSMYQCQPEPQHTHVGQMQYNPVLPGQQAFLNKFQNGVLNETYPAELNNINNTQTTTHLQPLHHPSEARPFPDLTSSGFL
Method: DRE-Luciferase Reporter Assay
AHR binds to Dioxin Responsive Elements (DRE) upstream of genes that it activates. One measure of AHR activity is activation of a reporter gene, such as luciferase, downstream of one or multiple DRE elements. Luciferase activity reflects activation and inhibition of AHR in the cells expressing this reporter.
Murine Hepa1-6 or Hepa-1c1c7 or other murine cell line with a DRE-luciferase reporter either stably or transiently transfected are plated in media in plates (96-well, 384-well or other plates) and incubated overnight at 37 C in a CO2 incubator. Likewise, human HepG2 or other human cell line with a DRE-luciferase reporter either stably or transiently transfected are plated in media in plates (96-well, 384-well or other plates) and incubated overnight at 37 C in a CO2 incubator.
The next day, an AHR agonist compound is added. Cells are incubated for 6, 16 or 24 hours or another time point and then lysed for determination of luciferase activity as a read-out of the AHR activation. Luciferase can be measured with a commercial kit such as the Promega Luciferase kit or any kit or reagents that provide the luciferin substrate for measuring luciferase activity. The level of luciferase with only activating ligand (e.g. such as TCDD, kynurenine, ITE (2-(1H-indole-3-ylcarbonyl)-4-thiazolecarboxylic methyl ester), VAF347, BNF (beta-naphthoflavone), ICZ (6-formylindolo(3,2-b) carbazole or other AHR ligands) added is the maximum signal while the luciferase with no ligand is the minimum signal. EC50s can be determined as the concentration which activates half of the maximum luciferase activity.

Row | SMILES | EC50 [µM]
1 | c1ccc(Nc2nc(-c3ccccc3)cs2)cc1 [Compound P-14] | > 1

same assay, conditions: DRE-Luc HepG2 - Agonist: Average EC50 (μM), HepG2, Table 3

Row | SMILES | EC50 [µM]
2 | O=C(O)c1cccc(Nc2nc(-c3cccc([N+](=O)[O-])c3)cs2)c1 [I-81] | > 1

same assay, conditions: HepG2, Table 2; read-out: DRE-Luc HepG2 - Agonist: Average EC50

Row | SMILES | EC50 [µM]
3 | C[N+](C)(CCO)CCOCCN(c1cccc(C(F)(F)F)c1)c1nc(-c2cccc(Cl)c2)cs1 [I-45] | 0.1 to 1
4 | C[N+](C)(CCOCCN(c1cccc(C(F)(F)F)c1)c1nc(-c2cccc(Cl)c2)cs1)CC(=O)O [I-51] | > 1
5 | C[N+](C)(CCO)CCOCCN(c1ccc(C(F)(F)F)cc1)c1nc(-c2cccc(Cl)c2)cs1 [I-52] | > 1
6 | FC(F)(F)c1ccc(Nc2ncc(-c3ccccc3Cl)o2)cc1 [I-62] | 0.1 to 1
7 | FC(F)(F)c1ccc(Nc2nc(-c3cccc(Cl)c3)co2)cc1 [I-63] | 0.1 to 1
8 | FC(F)(F)c1ccc(Nc2nnc(-c3cccc(Cl)c3)o2)cc1 [I-64] | > 1
9 | FC(F)(F)c1ccc(Nc2nnc(-c3cccc(Cl)c3)[nH]2)cc1 [I-65] | > 1
10 | Oc1ccc(-c2cnc(Nc3ccc(C(F)(F)F)cc3)o2)cc1 [I-67] | > 1
11 | Oc1cccc(-c2cnc(Nc3ccc(C(F)(F)F)cc3)o2)c1 [I-68] | > 1
12 | CN(C)CCOc1cccc(-c2cnc(Nc3ccc(C(F)(F)F)cc3)o2)c1 [I-69] | > 1
13 | Cn1cc(-c2cccc(Cl)c2)nc1Nc1cccc(C(F)(F)F)c1 [I-70] | > 1
14 | Cn1c(-c2cccc(Cl)c2)cnc1Nc1cccc(C(F)(F)F)c1 [I-71] | > 1
15 | C[N+](C)(C)CCOc1cccc(-c2cnc(Nc3ccc(C(F)(F)F)cc3)o2)c1 [I-72] | > 1
16 | C[N+](C)(C)CCOc1ccc(-c2cnc(Nc3ccc(C(F)(F)F)cc3)o2)cc1 [I-73] | > 1
17 | CN(C)CCOc1ccc(-c2cnc(Nc3ccc(C(F)(F)F)cc3)o2)cc1 [I-74] | > 1
18 | Oc1ccccc1-c1cnc(Nc2ccc(C(F)(F)F)cc2)o1 [I-75] | > 1

same assay, conditions: HepG2, Table 3; read-out: DRE-Luc HepG2 - Agonist: Average EC50

Row | SMILES | EC50 [µM]
19 | O=C(O)c1cc(-c2csc(Nc3cccc(C(F)(F)F)c3)n2)cc([N+](=O)[O-])c1 [I-78] | > 1
20 | O=C(O)c1cncc(-c2csc(Nc3cccc(C(F)(F)F)c3)n2)c1 [I-79] | > 1
21 | N#Cc1cc(Cl)cc(-c2csc(Nc3cccc(C(F)(F)F)c3)n2)c1 [I-80] | 0.01 to 0.1
22 | NC(=O)c1cccc(Nc2nc(-c3cccc([N+](=O)[O-])c3)cs2)c1 [I-82] | > 1
23 | O=[N+]([O-])c1cccc(-c2csc(Nc3ccc(C(F)(F)F)cc3)n2)c1 [I-84] | 0.01 to 0.1
24 | O=S(=O)(O)c1cccc(-c2csc(Nc3cccc(C(F)(F)F)c3)n2)c1 [I-85] | > 1
25 | CN(CCNC(=O)N(c1cccc(C(F)(F)F)c1)c1nc(-c2cccc(Cl)c2)cs1)CC(=O)O [I-86] | < 0.01
26 | C[N+]1(C)CCN(C(=O)c2cccc(Nc3nc(-c4cccc([N+](=O)[O-])c4)cs3)c2)CC1 [I-88] | > 1
27 | [O-][n+]1ccccc1-c1csc(Nc2cccc(C(F)(F)F)c2)n1 [I-94] | > 1
28 | N#Cc1cc(C(=O)O)cc(-c2csc(Nc3cccc(C(F)(F)F)c3)n2)c1 [I-95] | > 1
29 | O=[N+]([O-])c1cccc(-c2csc(Nc3cncc(C(F)(F)F)c3)n2)c1 [I-96] | < 0.01
30 | C[n+]1cccc(-c2csc(N(C(=O)NCCC[N+](C)(C)C)c3cccc(C(F)(F)F)c3)n2)c1 [I-98] | 0.1 to 1
31 | NC(=O)c1cc(-c2csc(Nc3cccc(C(F)(F)F)c3)n2)c[n+]([O-])c1 [I-99] | > 1
32 | NC(=O)c1cc(-c2csc(Nc3cccc(C(F)(F)F)c3)n2)cc([N+](=O)[O-])c1 [I-101] | > 1
33 | COC(=O)c1cncc(-c2csc(Nc3cccc(C(F)(F)F)c3)n2)c1 [I-102] | > 1
34 | O=[N+]([O-])c1cccc(-c2csc(Nc3cccc(S(=O)(=O)O)c3)n2)c1 [I-103] | > 1
35 | COC(=O)c1cccc(Nc2nc(-c3cccc(C#N)c3)cs2)c1 [I-104] | > 1
36 | NC(=O)c1cccc(-c2csc(Nc3cncc(C(F)(F)F)c3)n2)c1 [I-105] | > 1
37 | COC(=O)c1cccc(-c2csc(Nc3cccc(C(F)(F)F)c3)n2)c1 [I-106] | 0.1 to 1
38 | COC(=O)c1cc(-c2csc(Nc3cccc(C(F)(F)F)c3)n2)cc([N+](=O)[O-])c1 [I-108] | 0.1 to 1
39 | C[N+](C)(C)CCCNC(=O)N(c1cccc(C(F)(F)F)c1)c1nc(-c2ccc[n+]([O-])c2)cs1 [I-110] | > 1
40 | O=C(O)c1cc(-c2csc(Nc3cccc(C(F)(F)F)c3)n2)c[n+]([O-])c1 [I-111] | > 1
41 | COC(=O)c1cc(C#N)cc(-c2csc(Nc3cccc(C(F)(F)F)c3)n2)c1 [I-113] | > 1
42 | N#Cc1cccc(-c2csc(Nc3cccc(C(=O)O)c3)n2)c1 [I-114] | > 1

Row | SMILES | EC50 [µM]
43 | N#Cc1cc(-c2csc(Nc3cccc(C(F)(F)F)c3)n2)cc([N+](=O)[O-])c1 [I-115] | > 1
44 | O=C(O)c1cccc(Nc2nc(-c3ccc[n+]([O-])c3)cs2)c1 [I-116] | > 1
45 | C[N+](C)(C)CCNC(=O)N(c1cccc(C(F)(F)F)c1)c1nc(-c2ccc[n+]([O-])c2)cs1 [I-118] | 0.1 to 1
46 | NC(=O)c1cccc(-c2csc(Nc3cccc(C(F)(F)F)n3)n2)c1 [I-119] | < 0.01
47 | [O-][n+]1cccc(-c2csc(Nc3cncc(C(F)(F)F)c3)n2)c1 [I-122] | > 1
48 | [O-][n+]1cccc(-c2cnc(Nc3cccc(C(F)(F)F)c3)o2)c1 [I-123] | > 1
49 | N#Cc1cccc(-c2coc(Nc3cccc(C(F)(F)F)c3)n2)c1 [I-124] | > 1
50 | O=c1cc(-c2cnc(Nc3cccc(C(F)(F)F)c3)o2)cc[nH]1 [I-126] | > 1
51 | COC(=O)c1cc(-c2csc(Nc3cccc(C(F)(F)F)c3)n2)c[n+]([O-])c1 [I-127] | 0.1 to 1
52 | [O-][n+]1cccc(-c2csc(Nc3ccc(C(F)(F)F)cc3)n2)c1 [I-129] | 0.1 to 1
53 | [O-][n+]1cccc(-c2cc(Nc3cccc(C(F)(F)F)c3)no2)c1 [I-131] | > 1
54 | CSc1cccc(-c2csc(Nc3cccc(C(F)(F)F)c3)n2)c1 [I-132] | > 1
55 | O=c1cc(-c2nc(Nc3cccc(C(F)(F)F)c3)no2)cc[nH]1 [I-133] | 0.1 to 1
56 | [O-][n+]1cccc(-c2nc(Nc3cccc(C(F)(F)F)c3)no2)c1 [I-134] | > 1
57 | O=c1cc(-c2noc(Nc3cccc(C(F)(F)F)c3)n2)cc[nH]1 [I-135] | > 1
58 | O=c1cc(-c2cc(Nc3cccc(C(F)(F)F)c3)on2)cc[nH]1 [I-137] | > 1
59 | N#Cc1cccc(-c2cc(Nc3cccc(C(F)(F)F)c3)on2)c1 [I-138] | > 1
60 | O=c1cc(-c2cc(Nc3cccc(C(F)(F)F)c3)no2)cc[nH]1 [I-139] | 0.1 to 1
61 | [O-][n+]1cccc(-c2cc(Nc3cccc(C(F)(F)F)c3)on2)c1 [I-140] | > 1
62 | COc1cc(-c2csc(Nc3cccc(SC)c3)n2)ccn1 [I-141] | > 1
63 | CSc1cccc(Nc2nc(-c3cc[nH]c(=O)c3)cs2)c1 [I-142] | > 1
64 | [O-][n+]1cccc(-c2noc(Nc3cccc(C(F)(F)F)c3)n2)c1 [I-150] | > 1
65 | N#Cc1cccc(-c2cc(Nc3cccc(C(F)(F)F)c3)no2)c1 [I-151] | > 1

From patent US12030876B2, “Aryl hydrocarbon receptor (AHR) agonists and uses thereof” (Ikena Oncology, Inc., priority 2019, dated 2024)
